# Test results reported in patent publication US10639284B2, “Immunomodulator compounds” (CHEMOCENTRYX, INC., priority 2016, dated 2020).
# Molecular target: human PD-L1 / Human PD-1 (Homo sapiens (Human), UniProt Q9NZQ7)
# Test: Enzyme-Linked Immunosorbent Assay (ELISA), PD-1/PD-L1 binding
# Details: Table 2; plate-coated human PD-L1, biotinylated human PD-1; read-out: ELISA IC50
# Procedure, shortened: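 Human PD-L1 coated at 1 μg/mL overnight at 4° C; samples diluted 1:5 and incubated with human PD-1 and biotin (0.3 μg/mL) for 1 h at 37° C. Bound PD-1 detected with streptavidin-HRP and TMB (20 min, 37° C), acid-stopped, absorbance at 450 nm.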
# human PD-L1 / Human PD-1, sequence (Q9NZQ7 19-239): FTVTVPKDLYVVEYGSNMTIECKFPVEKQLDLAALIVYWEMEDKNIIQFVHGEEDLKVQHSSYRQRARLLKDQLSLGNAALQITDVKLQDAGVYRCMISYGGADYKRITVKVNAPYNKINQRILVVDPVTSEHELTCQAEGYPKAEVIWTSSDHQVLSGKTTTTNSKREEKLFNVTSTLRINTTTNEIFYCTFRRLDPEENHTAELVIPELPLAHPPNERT
row,SMILES,IC50
1,CCOc1cc(O[C@H]2CCc3c(-c4ccccc4F)cccc32)c(Cl)cc1CN[C@@H](C)C(=O)O [Example 2.153],0.1 to 0.5 µM
2,CCOc1cc(O[C@H]2CCc3c(-c4ccccc4F)cccc32)c(Cl)cc1CN[C@@H](C)C(=O)O [Example 2.154],0.1 to 0.5 µM
3,CCOc1cc(O[C@H]2CCc3c(-c4ccccc4F)cccc32)c(Cl)cc1CN[C@H](CO)C(=O)O [Example 2.155],0.1 to 0.5 µM
4,CCOc1cc(O[C@H]2CCc3c(-c4ccccc4F)cccc32)c(Cl)cc1CN[C@H](CO)C(=O)O [Example 2.156],0.1 to 0.5 µM
5,CCOc1cc(O[C@H]2CCc3c(-c4ccccc4F)cccc32)c(Cl)cc1CN[C@H](C(=O)O)[C@@H](C)O [Example 2.157],0.1 to 0.5 µM
6,CCOc1cc(O[C@H]2CCc3c(-c4ccccc4F)cccc32)c(Cl)cc1CN[C@H](C(=O)O)[C@@H](C)O [Example 2.158],0.1 to 0.5 µM
7,C[C@@](CO)(NCc1cc(Cl)c(O[C@H]2CCc3c(-c4ccccc4F)cccc32)cc1-c1cncc(C#N)c1)C(=O)O [Example 2.159],< 0.1 µM
8,C[C@@H](O)[C@H](NCc1cc(Cl)c(O[C@H]2CCc3c(-c4ccc5c(c4Cl)OCCO5)cccc32)cc1OCc1cncc(C#N)c1)C(=O)O [Example 2.160],< 0.1 µM
9,N#Cc1cncc(COc2cc(O[C@H]3CCc4c(-c5ccc6c(c5Cl)OCCO6)cccc43)c(Cl)cc2CN[C@@H](CO)C(=O)O)c1 [Example 2.161],< 0.1 µM
10,CCOC(=O)[C@H](CO)NCc1cc(Cl)c(O[C@H]2CCc3c(-c4ccccc4F)cccc32)cc1OCc1cncc(C#N)c1 [Example 2.162],0.5 to 20 µM
11,C[C@H](NCc1cc(Cl)c(O[C@H]2CCc3c(-c4ccc5c(c4Cl)OCCO5)cccc32)cc1OCc1cncc(C#N)c1)C(=O)O [Example 2.163],0.1 to 0.5 µM
12,CCOc1cc(O[C@H]2CCc3c(-c4ccccc4F)cccc32)c(Cl)cc1CNC(CO)(CO)CO [Example 2.164],< 0.1 µM
13,N#Cc1cncc(COc2cc(O[C@H]3CCc4c(-c5ccccc5F)cccc43)c(Cl)cc2CNC2(C(=O)O)CCCC2)c1 [Example 2.165],< 0.1 µM
14,N#Cc1cncc(COc2cc(O[C@H]3CCc4c(-c5ccccc5F)cccc43)c(Cl)cc2CNC(CO)C(=O)NO)c1 (stereo partly shown) [Example 2.166],0.1 to 0.5 µM
15,N#Cc1cncc(COc2cc(O[C@H]3CCc4c(-c5ccccc5F)cccc43)c(Cl)cc2CN[C@@H](CO)C(N)=O)c1 [Example 2.167],0.1 to 0.5 µM
16,C[C@H](NCc1cc(Cl)c(O[C@H]2CCc3c(-c4ccccc4F)cccc32)cc1OCc1cncc(C#N)c1)C(N)=O [Example 2.168],0.1 to 0.5 µM
17,CC(C)OC(=O)[C@@H](NCc1cc(Cl)c(O[C@H]2CCc3c(-c4ccccc4F)cccc32)cc1OCc1cncc(C#N)c1)[C@@H](C)O [Example 2.169],0.5 to 20 µM
18,N#Cc1cncc(COc2cc(O[C@H]3CCc4c(-c5ccccc5F)cccc43)c(Cl)cc2CNC(C(N)=O)C(N)=O)c1 [Example 2.170],0.5 to 20 µM
19,N#Cc1cncc(COc2cc(O[C@H]3CCc4c(-c5ccccc5F)cccc43)c(Cl)cc2CNCC(N)=O)c1 [Example 2.171],0.1 to 0.5 µM
20,CC(C)OC(=O)[C@H](CO)NCc1cc(Cl)c(O[C@H]2CCc3c(-c4ccccc4F)cccc32)cc1OCc1cncc(C#N)c1 [Example 2.172],0.5 to 20 µM
21,N#Cc1cncc(COc2cc(O[C@H]3CCc4c(-c5ccccc5F)cccc43)c(Cl)cc2CNC(=O)CCCC(=O)O)c1 [Example 2.173],0.5 to 20 µM
22,N#Cc1cncc(COc2cc(O[C@H]3CCc4c(-c5ccccc5F)cccc43)c(Cl)cc2CN[C@@H]2[C@@H]3CC[C@@H](C3)[C@@H]2C(=O)O)c1 [Example 2.174],0.5 to 20 µM
23,N#Cc1cncc(COc2cc(O[C@H]3CCc4c(-c5ccccc5F)cccc43)c(Cl)cc2CN[C@@H](C(=O)O)c2ccc(O)cc2)c1 [Example 2.175],0.1 to 0.5 µM
24,N#Cc1cncc(COc2cc(O[C@H]3CCc4c(-c5ccccc5F)cccc43)c(Cl)cc2CN[C@@H](C(=O)O)c2ccccc2)c1 [Example 2.176],< 0.1 µM
25,CCOc1cc(O[C@H]2CCc3c(-c4ccccc4F)cccc32)c(Cl)cc1CNC(C)(CO)C(=O)O (stereo partly shown) [Example 2.177],0.1 to 0.5 µM
26,N#Cc1cncc(COc2cc(O[C@H]3CCc4c(-c5ccccc5F)cccc43)c(Cl)cc2CN[C@H](C(=O)O)c2ccccc2)c1 [Example 2.178],0.1 to 0.5 µM

# Same assay, conditions: Table 3; plate-coated human PD-L1, biotinylated human PD-1; read-out: ELISA IC50
row,SMILES,IC50
1,CS(=O)(=O)c1cc(COc2cc(O[C@H]3CCc4c(-c5ccccc5F)cccc43)c(Cl)cc2CN[C@@H](CO)C(=O)O)cc(S(C)(=O)=O)c1 [Example 3.001],< 0.1 µM
2,N#Cc1cc(C#N)cc(COc2cc(O[C@H]3CCc4c(-c5ccc6c(c5)OCCO6)cccc43)c(Cl)cc2CN[C@@H](CO)C(=O)O)c1 [Example 3.002],< 0.1 µM
3,N#Cc1cc(C#N)cc(COc2cc(O[C@H]3CCc4c(-c5ccccc5F)cccc43)c(Cl)cc2CN[C@@H](CO)C(=O)O)c1 [Example 3.004],< 0.1 µM
4,C[C@@](CO)(NCc1cc(Cl)c(O[C@H]2CCc3c(-c4ccc5c(c4F)OCCO5)cccc32)cc1OCc1cc(C#N)cc(C#N)c1)C(=O)O [Example 3.005],< 0.1 µM
5,N#Cc1cc(C#N)cc(COc2cc(O[C@H]3CCc4c(-c5ccc6c(c5F)OCCO6)cccc43)c(Cl)cc2CN[C@@H](CO)C(=O)O)c1 [Example 3.006],< 0.1 µM
6,N#Cc1cncc(COc2cc(O[C@H]3CCc4c(-c5cc6c(cc5F)OCCO6)cccc43)c(Cl)cc2CN[C@H](O)CO)c1 [Example 3.007],< 0.1 µM
7,N#Cc1cncc(COc2cc(O[C@H]3CCc4c(-c5ccc6c(c5F)OCCO6)cccc43)c(Cl)cc2CN[C@@H](CO)C(=O)O)c1 [Example 3.008],< 0.1 µM
8,C[C@@](CO)(NCc1cc(Cl)c(O[C@H]2CCc3c(-c4ccc5c(c4F)OCCO5)cccc32)cc1OCc1cncc(C#N)c1)C(=O)O [Example 3.009],< 0.1 µM
9,CS(=O)(=O)c1cncc(COc2cc(O[C@H]3CCc4c(-c5ccc6c(c5F)OCCO6)cccc43)c(Cl)cc2CN[C@@H](CO)C(=O)O)c1 [Example 3.010],< 0.1 µM
10,N#Cc1cncc(COc2cc(O[C@H]3CCc4c(-c5cc6c(c(F)c5F)OCCO6)cccc43)c(Cl)cc2CN[C@@H](CO)C(=O)O)c1 [Example 3.011],< 0.1 µM
11,O=C(O)[C@H](CO)NCc1cc(Cl)c(O[C@H]2CCc3c(-c4ccc5c(c4F)OCCO5)cccc32)cc1OCc1cc(F)cc(F)c1 [Example 3.012],0.5 to 20 µM
12,O=C(O)[C@H](CO)NCc1cc(Cl)c(O[C@H]2CCc3c(-c4ccc5c(c4F)OCCO5)cccc32)cc1OCc1cc(F)cc(Cl)c1 [Example 3.013],0.5 to 20 µM
13,O=C(O)[C@H](CO)NCc1cc(Cl)c(O[C@H]2CCc3c(-c4ccc5c(c4F)OCCO5)cccc32)cc1OCc1cc(Cl)cc(Cl)c1 [Example 3.014],0.5 to 20 µM
14,N#Cc1cc(Cl)cc(COc2cc(O[C@H]3CCc4c(-c5ccc6c(c5F)OCCO6)cccc43)c(Cl)cc2CN[C@@H](CO)C(=O)O)c1 [Example 3.015],< 0.1 µM
15,COc1cccc(-c2cccc3c2CC[C@@H]3Oc2cc(OCc3cc(C#N)cc(C#N)c3)c(CN[C@@H](CO)C(=O)O)cc2Cl)c1Cl [Example 3.016],< 0.1 µM
16,N#Cc1cncc(COc2cc(O[C@H]3CCc4c(-c5cc(F)c6c(c5)OCCO6)cccc43)c(Cl)cc2CN[C@@H](CO)C(=O)O)c1 [Example 3.017],< 0.1 µM

row,SMILES,IC50
1,N#Cc1cncc(COc2cc(O[C@H]3CCc4c(-c5ccccc5F)cccc43)c(Cl)cc2CN[C@@H]2CCC[C@H]2O)c1 [Example 3.018],< 0.1 µM
2,N#Cc1cncc(COc2cc(O[C@H]3CCc4c(-c5ccccc5F)cccc43)c(Cl)cc2CN[C@H]2CCC[C@@H]2O)c1 [Example 3.019],< 0.1 µM
3,N#Cc1cc(COc2cc(O[C@H]3CCc4c(-c5cccc(O)c5F)cccc43)c(Cl)cc2CN[C@@H](CO)C(=O)O)cc(NC=O)c1 [Example 3.020],< 0.1 µM
4,N#Cc1cncc(COc2cc(O[C@H]3CCc4c(-c5ccccc5F)cccc43)c(Cl)cc2CN[C@H]2CCCC[C@@H]2O)c1 [Example 3.021],< 0.1 µM
5,N#Cc1cc(C#N)cc(COc2cc(O[C@H]3CCc4c(-c5ccccc5)cccc43)c(Cl)cc2CN[C@@H](CO)C(=O)O)c1 [Example 3.022],< 0.1 µM
6,NCCCC[C@H](NCc1cc(Cl)c(O[C@H]2CCc3c(-c4ccccc4F)cccc32)cc1OCc1cncc(C(=O)O)c1)C(=O)O [Example 3.023],0.1 to 0.5 µM
7,N#Cc1cncc(COc2cc(O[C@H]3CCc4c(-c5ccccc5F)cccc43)c(Cl)cc2CN[C@@H](CO)C(=O)O)c1 [Example 3.024],< 0.1 µM
8,Cc1cncc(COc2cc(O[C@H]3CCc4c(-c5ccc6c(c5F)OCCO6)cccc43)c(Cl)cc2CN[C@@H](CO)C(=O)O)c1 [Example 3.025],< 0.1 µM
9,N#Cc1ccnc(COc2cc(O[C@H]3CCc4c(-c5ccc6c(c5F)OCCO6)cccc43)c(Cl)cc2CN[C@@H](CO)C(=O)O)c1 [Example 3.026],< 0.1 µM
10,O=C(O)[C@H](CO)NCc1cc(Cl)c(O[C@H]2CCc3c(-c4ccc5c(c4F)OCCO5)cccc32)cc1OCc1cncc(Cl)c1 [Example 3.027],< 0.1 µM
11,N#Cc1cncc(COc2cc(O[C@H]3CCc4c(Br)cccc43)c(Cl)cc2CN[C@@H](CO)C(=O)O)c1 [Example 3.028],0.5 to 20 µM
12,O=C(O)c1cncc(COc2cc(O[C@H]3CCc4c(-c5ccccc5F)cccc43)c(Cl)cc2CN[C@@H](CO)C(=O)O)c1 [Example 3.029],0.1 to 0.5 µM
13,O=C(O)c1cncc(COc2cc(O[C@H]3CCc4c(-c5ccc6c(c5F)OCCO6)cccc43)c(Cl)cc2CN[C@@H](CO)C(=O)O)c1 [Example 3.030],0.1 to 0.5 µM
14,CCOC(=O)[C@](C)(CO)NCc1cc(Cl)c(O[C@H]2CCc3c(-c4ccc5c(c4F)OCCO5)cccc32)cc1OCc1cncc(C#N)c1 [Example 3.031],0.1 to 0.5 µM
15,N#Cc1cncc(COc2cc(O[C@H]3CCc4c(-c5ccccc5F)cccc43)c(Cl)cc2CN[C@@H]2CCCC[C@@H]2O)c1 [Example 3.032],< 0.1 µM
16,N#Cc1cncc(COc2cc(O[C@H]3CCc4c(-c5ccc6c(c5F)OCCO6)cccc43)c(Cl)cc2CN[C@@H]2CCC[C@H]2O)c1 [Example 3.033],< 0.1 µM
